Measured values taken from patent US4089947A, “Antibiotic compositions containing validamycin compounds” (priority 1976, dated 1978).

What was measured:
[1] = Solubilities; format: physicochemical
[2] = Acute toxicity in mice, intravenous injection; format: in vivo; conditions: mouse, in vivo
Procedure: (§1) The toxicity of the antibiotics can be confirmed, for instance, by administering each of the validamycins C, D, E and F, and validoxylamines A and B, intravenously to mice and measuring the LD50 value, or by measuring the median lethal dose (48 hours) for Oryzias latipes.

[3] = tested on: useful plants; assay: Effect on useful plants (general statement); format: in vivo; conditions: even when applied in a high concentration
[4] = pKa' (neutralization, in aqueous solution); format: physicochemical; conditions: for pKa: water
From the text: 3. The elementary analysis, the molecular formulas as calculated therefrom, pKa' values, neutralization equivalents (molecular weight) and optical rotation values are given in Table 2.

[5] = tested on: plant diseases; assay: Control of plant diseases (general statement); format: in vivo; conditions: for controlling effect against plant diseases, for example, the sheath blight of the rice plant: application in vivo; for effectiveness against sheath blight and stem rot of rice plant, damping off and sclerotial blight of vegetables, flowering plants and lumber seedlings: in vivo
[6] = Acute toxicity for Oryzias latipes (median lethal dose, 48 hours); format: in vivo; conditions: medaka, leaving in water solution, read-out: TLm
Procedure: as §1

[7] = tested on: men and beasts, as well as to fish; assay: Harmlessness to men, beasts and fish (general statement); conditions: in vivo
[8] = tested on: bacteria and fungi; assay: Antimicrobial potency / growth inhibition in vitro; format: cell-based
[9] = tested on: Pellicularia sasakii; assay: Rice sheath blight control test, preventive (prophylactic); format: in vivo; conditions: 10 days after application, untreated 34.4cm
Procedure: (§2) Rice sheath blight control test
(§3) Rice Plants (variety: Kinmaze) are planted in earthen pots 9 cm in diameter, 3 stocks per pot. Seedlings 80 days after potting are tested and 6 pots each of them are grouped.
(§4) Pathogenic fungi Pellicularia sasakii is cultivated on a plate of potato infusion-sugar-agar at 30°C for 48 hours, and its agar disc 10mm in diameter is cut out from a peripheral colony. The disc is inserted into the inside space of the leaf sheath near the soil surface, a disc per stem. The pots are kept in a PVC shelter at the temperature of 32°-25° C and the relative humidity of 100-70%. Inoculation is carried out immediately after the applied drug has been air-dried in the prophylactic test, and 3 days before application in the remedial test.
(§5) 10 days after application of the drug, the length of each stem from ground level to the upper edge of the lesion is directly measured.

[10] = tested on: Rhyzoctonia solani; assay: Cucumber damping-off control test; format: in vivo; conditions: 14 days after sowing
Procedure: Cucumber damping-off control test
Rhyzoctonia solani is cultured on barley medium at 28° C for 5 days. A field soil sample is packed into clay pots 9 cm in diameter, which are then sterilized with steam. The chaff inoculum is evenly worked into the cover soil of each pot to the depth of about 3 cm, at the rate of 2g./pot. The pots are kept in an incubation chamber at 28° C for 4 days and, then, transferred to a greenhouse.
As per Experiment 1, the drug is sprayed onto the soil surface at the rate of 30 ml./6 pots/group.
Healthy seeds of cucumber (variety: Yonyo) are sown by burial in the pots immediately after treatment, at the rate of 10 seeds/pot. The pots are then placed in a greenhouse at 32°-28° C.
14 days after sowing, the results are evaluated against the following coefficients of lesion and the degrees of damage are calculated.
Coefficients of lesion (I)
0.5 : Root hairs alone are slightly affected.
1 : Aerial portions near soil surface and roots affected.
2 : Early stage of damping-off.
3 : Affected at germination; growth inhibited.
Degree of damage (%) =(Σ(nI))/3 × N × 100 wherein n means the number of samples corresponding to each coefficient of lesion and N means the total number of plants.

[11] = tested on: Pellicularia sasakii; assay: Rice sheath blight control test, remedial; format: in vivo; conditions: inoculation 3 days before application, untreated 34.4cm
Procedure: as §2, §3, §4, §5

[12] = tested on: Cladosporium fulvum; assay: Tomato leaf mold control test; format: in vivo; conditions: 50 ppm; 14 days after inoculation; inoculated 3 days before application
Procedure: Tomato leaf mold control test
Tomato plants (variety: ponterosa) are planted in 12 cm in diameter pots, one plant per pot. The seedlings 50 days after potting are used, 6 pots/group.
Applied at the rate of 100 ml./6 pots/group as per Experiment 1.
Pathogenic fungi Cladosporium fulvum is cultured on a potato infusion-sucrose plate at 20° C for 14 days, and a suspension of conidia (5×10^5 /ml.) is prepared from the culture.
The plants are spray-inoculated with the suspension 3 days before application of the drug, at the rate of 5 ml. per pot. The pots are kept in an inoculation chamber at 25° C for 24 hours, and, then they are transferred to a greenhouse.
14 days after inoculation, the specific ratio of the average area of lesion in the leaves is measured.

[13] = tested on: Pellicularia sasakii; assay: Abnormal branching of hyphal tips of Pellicularia sasakii (agar dilution bioassay); format: cell-based; conditions: for highest dilution factor that causes an abnormal branching at the hyphal tips of Pellicularia sasakii: 1 mg./ml. aqueous solution as stock solution; for dilution unit (maximum dilution which produces abnormal branching): aqueous solution containing 1000 γ/ml., 27° C for 40 hours
Procedure: Therefore, the bioassay of the antibiotics should be conducted in the following manner.
Pellicularia sasakii is used as the test organism employing plain agar as the assay medium. The test organism is cultivated on a potato (sucrose) agar slant for 2 to 5 days, and the resulting culture is used to inoculate at the center of a 9-cm Petri dish plate of modified Pfeffer's medium, which is then incubated at 27° C for 2 days. By the end of this period, the mycelium will have spread over the entire surface of the plate. The growth on the circumference about 3 to 3.5 cm in radius from the center is cut out with a cork borer and the agar disc thus obtained is used as the inoculum.
A serial dilution series of agar plants containing varying concentrations of the antibiotics is prepared in the same manner as a conventional agar dilution method.
A glass disc of 8 mm in diameter and about 0.2 mm thick, is placed in the center of each of the aforementioned dilution series of agar plates, and the agar disc inoculum is then placed on the glass disc. After incubation at 27° C for 40 hours, the result is evaluated. […] The term dilution unit means the value of maximum dilution which produces such abnormal branching.
Modified Pfeffer's medium, which is employed in this assay, has the following composition.
Before using the medium, the following vitamins are added in the specified amounts. (Weight per ml. of medium)
When a 1 mg./ml. aqueous solution of each of validamycins C, D, E and F and validoxylamines A and B is used as a stock solution, the highest dilution factor that causes an abnormal branching at the hyphal tips of Pellicularia sasakii is as follows.

[14] = tested on: Mice; assay: Acute toxicity in mice, intravenous injection; format: in vivo
Procedure: as §1

[15] = tested on: Oryzias latipes; assay: Acute toxicity for Oryzias latipes (median lethal dose, 48 hours); format: in vivo; conditions: leaving in water solution
Procedure: as §1

Structure (SMILES)	solubility in methanol [1]	effect on germination, growth, yield and other features of useful plants [3]	controlling effect against plant diseases, for example, the sheath blight of the rice plant [5]	effectiveness against sheath blight and stem rot of rice plant, damping off and sclerotial blight of vegetables, flowering plants and lumber seedlings [5]	harmfulness to men and beasts, as well as to fish [7]	antimicrobial potency / growth inhibition of bacteria and fungi in vitro [8]	Preventive effect (percent of the average length of lesion/stem per control untreated) ([9]; 3 ppm) [%]	Preventive effect (percent of the average length of lesion/stem per control untreated) ([9]; 10 ppm) [%]	Preventive effect (percent of the average length of lesion/stem per control untreated) ([9]; 30 ppm) [%]	Preventive effect (percent of the average length of lesion/stem per control untreated) ([9]; 100 ppm) [%]	Preventive effect (percent of the average length of lesion/stem per control untreated) ([9]; 300 ppm) [%]	Degree of damage ([10]; 5 ppm) [%]	Degree of damage ([10]; 20 ppm) [%]	Degree of damage ([10]; 80 ppm) [%]	Remedial effect (percent of the average length of lesion/stem per control untreated) ([11]; 10 ppm) [%]	Remedial effect (percent of the average length of lesion/stem per control untreated) ([11]; 30 ppm) [%]	Remedial effect (percent of the average length of lesion/stem per control untreated) ([11]; 100 ppm) [%]	Remedial effect (percent of the average length of lesion/stem per control untreated) ([11]; 300 ppm) [%]	Specific area of lesion [12] [%]	highest dilution factor that causes an abnormal branching at the hyphal tips of Pellicularia sasakii [13]	further results
OCC1=CC(NC2CC(CO)C(O)C(O)C2O)C(O)C(O)C1O (stereo not drawn) [Validoxylamine A]	soluble	do not substantially affect	excellent controlling effect	very effective	substantially harmless	no antimicrobial potency	28	4	1	0	0	84	6	0	28	14	10	7	6	100	LD50 [2]: > 2000 mg/kg; pKa [4]: 6.2 ± 0.2; LC50 at 48 h [6]: > 1000 µg/mL; Remedial effect (percent of the average length of lesion/stem per control untreated) ([11]; 3 ppm): 83%; dilution unit (maximum dilution which produces abnormal branching) [13]: 100 dilution unit/ml.
OCC1=C[C@H](NC2C(O)C(O)C(O)C(CO)C2O)[C@H](O)[C@@H](O)[C@@H]1O (stereo partly drawn) [Validoxylamine B]	more sparingly soluble	do not substantially affect	excellent controlling effect	very effective	substantially harmless	no antimicrobial potency	49	47	32	16	8	100	100	75	93	75	51	10	36	10	solubility in pyridine ([1]; pyridine): more sparingly soluble; LD50 [2]: > 2000 mg/kg; pKa [4]: 5 ± 0.2; LC50 at 48 h [6]: > 1000 µg/mL; dilution unit (maximum dilution which produces abnormal branching) [13]: 10 dilution unit/ml.
OCC1CC(NC2C=C(COC3OC(CO)C(O)C(O)C3O)C(O)C(O)C2O)C(O)C(O)C1OC1OC(CO)C(O)C(O)C1O (stereo not drawn) [Validamycin C]	more sparingly soluble	do not substantially affect	excellent controlling effect	very effective	substantially harmless	no antimicrobial potency	46	34	4	1	0	100	84	0	22	12	10	7	18	100	LD50 [14]: > 2000 mg/kg; pKa' [4]: 6.0 ± 0.2; TLm [15]: > 1000 ppm; Remedial effect (percent of the average length of lesion/stem per control untreated) ([11]; 3 ppm): 68%; dilution unit (maximum dilution which produces abnormal branching) [13]: 100 dilution unit/ml.
